# According to paper PMC9841589, “Identification of 2-Aminoacyl-1,3,4-thiadiazoles as Prostaglandin E2 and Leukotriene Biosynthesis Inhibitors” (ACS Medicinal Chemistry Letters, 2022):
# Molecular target: T1, COX-1 (Ovis aries, UniProt P05979)
# T1 sequence (P05979 25-600): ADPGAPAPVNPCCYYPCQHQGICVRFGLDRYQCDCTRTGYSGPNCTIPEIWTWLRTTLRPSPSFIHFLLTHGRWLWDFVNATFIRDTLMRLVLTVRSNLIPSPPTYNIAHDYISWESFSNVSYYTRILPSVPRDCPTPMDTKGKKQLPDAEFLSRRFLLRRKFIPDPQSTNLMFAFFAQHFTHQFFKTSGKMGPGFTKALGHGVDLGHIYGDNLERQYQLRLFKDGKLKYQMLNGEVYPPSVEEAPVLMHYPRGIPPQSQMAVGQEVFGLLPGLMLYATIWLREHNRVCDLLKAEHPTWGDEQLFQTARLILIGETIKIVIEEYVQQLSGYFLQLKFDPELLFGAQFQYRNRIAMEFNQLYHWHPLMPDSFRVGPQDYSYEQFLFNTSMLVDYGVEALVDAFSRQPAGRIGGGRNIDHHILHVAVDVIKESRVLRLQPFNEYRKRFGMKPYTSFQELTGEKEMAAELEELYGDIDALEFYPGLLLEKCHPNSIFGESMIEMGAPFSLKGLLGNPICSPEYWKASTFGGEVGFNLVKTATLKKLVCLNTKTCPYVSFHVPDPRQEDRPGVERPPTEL
# Test: Cell-free COXs activity assay, COX-1
# Format: biochemical, ovine
# Settings: percentage of uninhibited control (100%), n = 3, n.i.: no inhibitory activity observed, read-out: COX-1 residual activity (%)
# Description: Cell-free COXs activity assay
# Isolated COX-1 (ovine) and COX-2 (human) were used for the evaluation of the activity of test compounds 3, 6, 7, and 9 on cyclooxygenases. COXs were diluted using Tris buffer (100 mM, pH = […]
# 8) plus 5 mM glutathione, 100 µM EDTA and 5 µM hemoglobin) to a final concentration of 50 U/mL for COX-1 and 20 U/mL for COX-2, and pre-incubated with test compounds 3, 6, 7, and 9 (10 µM) or vehicle (0.1% DMSO) over 5 min at rt. After 1 min at 37 °C, reactions were started after addition of arachidonic acid to a final concentration of 5 µM for COX-1 and 2 µM for COX-2. After 5 min at 37 °C, 1 mL of ice-cold methanol was added for stopping the reactions on ice. Then, PGB 1 as internal standard and 530 µl PBS plus HCl were added, and solid-phase extraction was performed as reported before.4-6, 17-19 COXs product formation (12-HHT) was determined using RP-HPLC. 4-6, 17-19 Indomethacin (10 µM) and celecoxib (5 µM) were used as reference drugs.
# Expression, purification and activity assay of human recombinant sEH
# Human recombinant sEH was expressed in Sf9 cells and was infected using a baculovirus, provided by Dr. B. Hammock, University of California, Davis, CA. After 72 hours, cells were pelleted and sonicated (3 × 10 sec) at 4 °C in lysis buffer (50 mM NaHPO 4, pH = 8, 300 mM NaCl, 10% glycerol, 1 mM EDTA, 1 mM phenylmethanesulfonyl fluoride, 10 µg/mL of leupeptin, and 60 µg/mL of soybean trypsin inhibitor). Lysates were centrifuged over 60 min at 4 °C (100,000 × g), and supernatants were collected and submitted to a benzylthio-sepharose-affinity chromatography for sEH purification by elution with 4-fluorochalcone oxide in PBS plus 1 mM DTT and 1 mM EDTA.720 […]
# DMSO) for 15 min at rt. 50 µM 3-phenyl-cyano(6-methoxy-2-naphthalenyl)methyl ester-2-oxiraneacetic acid (PHOME), a non-fluorescent compound, was added for starting the reaction.
# PHOME is enzymatically converted into a fluorescent compound, 6-methoxy-naphtaldehyde, detectable by using a spectrofluorometer setting λ em = 465 nm, λ ex = 330 nm. After 60 min, ZnSO 4
row,remaining activity at 10 µM [%],SMILES
1,82.3,Cc1cc(C(=O)Nc2nnc(-c3ccc(-c4ccccc4N)cc3)s2)cc(Cl)n1 [compound 6]
2,107,Nc1ccccc1-c1ccc(-c2nnc(NC(=O)c3c(Cl)ccnc3Cl)s2)cc1 [compound 9]
3,104,O=C(Nc1nnc(-c2ccc(-c3cccc(O)c3)cc2)s1)c1ccccc1Br [compound 3]
4,98.1,Nc1ccccc1-c1ccc(-c2nnc(NC(=O)c3ccccc3Br)s2)cc1 [compound 7]
